Key:
Phaedon cochleariae = Phaedon cochleariae - spray test; format: in vivo; conditions: application rate 500 g/ha; larvae on Chinese cabbage leaf discs; after 7 days
Procedure, shortened: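 Mortality of mustard beetle larvae was scored as % at day 7 on Brassica pekinensis leaf discs. Discs had been treated by spraying at the desired concentration, using an acetone/dimethylformamide solution diluted in water with 1000 ppm alkylaryl polyglycol ether, and dried before larvae were added.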

Ctenocephalides felis [1] = experiment: Ctenocephalides felis - oral test; format: in vivo; conditions: application rate 100 ppm in citrated cattle blood; after 2 days
Procedure, shortened: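 Roughly 20 unfed adult C. felis imbibe compound-dosed citrated cattle blood (DMSO formulation) across parafilm from a cylinder above their gauze chamber; percentage mortality recorded at day 2.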

Amblyomma hebraeum = experiment: Amblyomma hebaraeum test (tick nymphs, immersion); format: in vivo; conditions: application rate 100 ppm; tick nymphs immersed one minute; after 42 days
Procedure, shortened: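 Mortality (%) is read 42 days post-treatment, where 0% means no ticks and 100% all ticks killed. Nymphs were dipped for 1 min into the test dilution (DMSO stock diluted with water) and afterwards stored on filter paper under controlled climate.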

Myzus persicae = Myzus persicae - spray test; format: in vivo; conditions: Chinese cabbage leaf discs, after 6 days
Procedure, shortened: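 Mortality of the green peach aphid, as % killed, was read 6 days after spraying infested Brassica pekinensis leaf discs. Compound formulated in acetone/dimethylformamide and made up with emulsifier-containing (1000 ppm) water.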

Musca domestica = Musca domestica test; format: in vivo; conditions: application rate 100 ppm; adult houseflies; after 2 days
Procedure, shortened: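 Water-diluted DMSO stock of compound, mixed onto a sugar-treated sponge, served as the sole exposure route for ten adult houseflies. Kill percentage scored at 2 days.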

Ctenocephalides felis [2] = experiment: Ctenocephalides felis - in vitro contact tests with adult cat fleas; format: in vivo; conditions: application rate 5 μg/cm2 (=500 g/ha); after 48 h; fleas dead or moribund
Procedure, shortened: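 Efficacy, as percentage of fleas dead or moribund, was scored at 48 h by knocking fleas to the tube base. Exposure was by contact with a dried acetone film of compound at 5 μg/cm^2 area dose; 5–10 adults per tube, room temperature, ambient humidity.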

Spodoptera frugiperda = Spodoptera frugiperda - spray test; format: in vivo; conditions: application rate 500 g/ha; caterpillars on maize leaf discs; after 7 days
Procedure, shortened: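 Percent mortality of Spodoptera frugiperda caterpillars scored 7 days after placing them on dried maize leaf discs sprayed at the desired concentration. Spray formulation: compound dissolved in acetone/dimethylformamide, made up with water containing 1000 ppm emulsifier.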

[3] = logP determination by HPLC on a reversed-phase column (C18); format: physicochemical; conditions: for logP^a): HPLC-MS method a); for log P: HPLC-MS, Table I-T3
Boophilus microplus = Boophilus microplus - injection test; format: in vivo; conditions: application rate 20 μg/animal; injection into engorged adult female ticks; after 7 days
Procedure, shortened: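 Five engorged adult female cattle ticks each received a 1 μl abdominal injection of compound solution in dimethyl sulphoxide. Fertile egg laying was assessed at 7 days, with doubtful eggs incubated about 42 days until hatch. 0% efficacy means all eggs fertile.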

Tetranychus urticae = Tetranychus urticae - spray test, OP-resistant; format: in vivo; conditions: application rate 500 g/ha; bean leaf discs; after 6 days
Procedure, shortened: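 Mortality (%) read on day 6 after spraying Phaseolus vulgaris leaf discs carrying all mite stages with formulations at the desired concentration. Formulation: active ingredient in acetone plus dimethylformamide, made up with emulsifier-containing water (1000 ppm alkylaryl polyglycol ether).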

Lucilia cuprina = Lucilia cuprina test; format: in vivo; conditions: application rate 100 ppm; L1 larvae; after 2 days
Procedure, shortened: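 Mortality (%) of first-instar blowfly larvae, about 20 per vessel, recorded 2 days after exposure to compound-treated minced horsemeat. Compound dissolved in dimethyl sulphoxide, then water-diluted to the desired concentration.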

[4] = system: Boophilus microplus Parkhurst strain, SP-resistant; experiment: Boophilus microplus - dip test; format: in vivo; conditions: application rate 100 ppm; dip of engorged adult female ticks; after 7 days
Procedure, shortened: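 Compound dissolved in DMSO, diluted with water, and used to fully wet groups of 8-10 engorged female cattle ticks (SP-resistant Parkhurst strain). Fertile egg laying assessed at 7 days, doubtful eggs held ~42 days until hatch; 0% means all eggs fertile.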

Rhipicephalus sanguineus = Rhipicephalus sanguineus - in vitro contact tests with adult brown dog ticks; format: in vivo; conditions: application rate 5 μg/cm2; after 48 h; ticks dead or moribund
Procedure, shortened: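 Efficacy, scored after 48 h, is the % of adult ticks dead or moribund, i.e. unable to climb away on a 45-50° C hotplate within 5 min. Tubes held 5-10 ticks in the dark at room temperature, on an acetone-applied coating of 5 μg/cm^2 (900 ppm solution).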

Row | Compound | efficacy (Phaedon cochleariae) | efficacy (kill) (Ctenocephalides felis [1]) | efficacy (kill) (Amblyomma hebraeum) | efficacy (Myzus persicae; application rate 500 g/ha) | efficacy (kill) (Musca domestica) | efficacy (Ctenocephalides felis [2]) | efficacy (Spodoptera frugiperda) | logP^a) [3] | log P ([3]; reversed-phase column (C18)) | efficacy (laying of fertile eggs) (Boophilus microplus) | efficacy (Tetranychus urticae) | efficacy (kill) (Lucilia cuprina) | efficacy (laying of fertile eggs) [4] | efficacy (Rhipicephalus sanguineus) | efficacy (Myzus persicae; application rate 100 g/ha) | logP^a) ([3]; reversed-phase column (C18))
1 | Cc1ncc(-c2cnn(-c3c(Cl)cc(C(F)(C(F)(F)F)C(F)(F)F)cc3Cl)c2)cc1C(=O)NC1CC1 [I-T3-91] | 100% | 100% | 100% | 90% | 100% | 100% | 100% | 3.3 | 3.3 | 100% | 100% | 100% | 100% | 100% | – | –
2 | Cc1ncc(-c2cnn(-c3c(Cl)cc(C(F)(C(F)(F)F)C(F)(F)F)cc3Cl)c2)cc1C(=O)NC1(C#N)CC1 [I-T3-92] | 100% | 100% | 100% | 100% | 100% | 100% | 100% | 3.4 | 3.4 | 100% | 100% | 100% | 100% | 80% | – | –
3 | Cc1cc(C(F)(C(F)(F)F)C(F)(F)F)cc(C)c1-n1cc(-c2cnc(C)c(C(=O)NC3CC3)c2)cn1 [I-T3-96] | 100% | 100% | 100% | – | 100% | 100% | 100% | 3.3 | 3.3 | 100% | 100% | 100% | 100% | 100% | 90% | –
4 | Cc1cc(C(F)(C(F)(F)F)C(F)(F)F)cc(C)c1-n1cc(-c2cnc(C)c(C(=O)NC3(C#N)CC3)c2)cn1 [I-T3-97] | 100% | 100% | 100% | 90% | 100% | 100% | 100% | 3.4 | 3.4 | 100% | 100% | 100% | 100% | 100% | – | –
5 | O=C(NC1CC1)c1cc(-c2cnn(-c3c(Cl)cc(C(F)(F)F)cc3Cl)c2)cnc1Cl [I-T3-98] | 100% | 100% | 100% | – | 90% | 100% | 100% | 3.1 | 3.1 | 100% | 100% | 100% | 100% | 100% | 90% | –
6 | Cc1cc(C(F)(C(F)(F)F)C(F)(F)F)cc(C(F)(F)F)c1-n1cc(-c2cnc(Cl)c(C(=O)NC3CC3)c2)cn1 [I-T3-106] | 100% | 100% | 100% | 100% | 100% | 100% | 100% | – | 4.0 | 100% | 100% | 100% | 100% | 100% | – | 4.0

From US10150737B2, “Compounds for controlling arthropods” (priority 2013, dated 2018)
